We go through one molecule from patent publication US20160113931A1, “Method of treating and/or preventing neurodegenerative diseases” (University of Macau, priority 2014, published 2016).

The nature of data set [1]: OPC proliferation (MTT assay). The data set is classed as cell-based, rat. The settings on record: rat, primary oligodendroglial progenitor cells (OPCs), 100 μM, read-out: OPC viability compared with the control group (cytotoxicity). The protocol:
(§1) FIGS. 10A, 10B and 10C show the effects of BHDPC in oligodendroglial progenitor cells (OPCs) proliferation. OPCs were incubated with the drugs at indicated concentrations in proliferation medium for 2 days. (FIG. 10A) The cell viability was measured by MTT assay.
(§2) The percentage of surviving cells was estimated by determining the activity of mitochondrial dehydrogenases with 3(4,5-dimethylthiazol-2-yl)-2,5-diphenyltetrazolium bromide (MTT) assay. After drug treatment, cells were incubated at 37° C. for 4 h in 0.5 mg/mL MTT solution. The medium was then removed, and 100 μL of DMSO was added to each well to dissolve the violet formazan crystals. The absorbance of the samples was measured at a wavelength of 570 nm with 655 nm as a reference wavelength. All values were normalized to the control groups.
(§3) Purified OPC cultures were prepared as described. In brief, primary rat mixed glial cell cultures were isolated from whole brains of postnatal day (P) 2 rats, dissociated into single cells, and cultured into poly-D-lysine (PDL) coated T75 tissue culture flasks. Plating medium consisted of Dulbecco's modified Eagle's medium (DMEM, Invitrogen, Carlsbad, Calif.) supplemented with 10% fetal bovine serum (FBS; Invitrogen, Carlsbad, Calif.), […]. Tissue cultures were maintained at 37° C. in a humidified 5% CO2 incubator, and medium was exchanged every 3 days. Once confluent (after 10-15 days), microglia were separated by mechanical shaking of flasks on a rotary shaker for […] at 250 rpm and removed. After addition of fresh medium, the remaining cells were allowed to recover overnight before repeating the mechanical shaking for an additional 16 h at 200 rpm to isolate OPCs. To ensure purity of OPC cultures, the isolated cells were transferred to a tissue culture dish, from which the loosely attached OPCs were detached by gentle shaking after 60 min, leaving behind attached microglia and astrocytes. OPCs were plated onto PDL coated 96 well plates using an automated dispenser and allowed to adhere to the plates over the next 1-2 days.
(§4) To test the effect of BHDPC on primary OPC culture, OPCs were treated with BHDPC for 48 h and the cell viability was determined using MTT assay. […] The proliferation activity of BHDPC was also confirmed by the EdU incorporative assay.

Data set [2] concerns oligodendroglial progenitor cells (OPCs). The experiment in a line: OPC proliferation (MTT assay). Type of data set: cell-based, rat. The settings on record: Rattus norvegicus, 48 h, read-out: OPC viability compared with the control group. The protocol: as §1, §2, §3, §4
For data set [3] the test system is unchanged. The experiment in a line: Hydrogen peroxide-induced OPC death (MTT assay). The settings on record: 30 μM, 200 μM hydrogen peroxide 6 h. The data set is classed as cell-based, rat. The protocol:
(§5) OPCs were incubated with 30 μM BHDPC or 0.1% DMSO (vehicle control) for 2 h followed by the addition or not of 200 μM H2O2 for a further 6 h (FIG. 11A) or LPS (FIG. 11B) for 24 h.
as §2
(§6) Purified OPC cultures were prepared as described. In brief, primary rat mixed glial cell cultures were isolated from whole brains of postnatal day (P) 2 rats, dissociated into single cells, and cultured into poly-D-lysine (PDL) coated T75 tissue culture flasks. Plating medium consisted of Dulbecco's modified Eagle's medium (DMEM, Invitrogen, Carlsbad, Calif.) supplemented with 10% fetal bovine serum (FBS; Invitrogen, Carlsbad, Calif.), […]. Tissue cultures were maintained at 37° C. in a humidified 5% CO2 incubator, and medium was exchanged every 3 days. […]

Data set [4] has the same test system. The experiment in a line: LPS-induced OPC death (MTT assay). Type of data set: cell-based, rat. The settings on record: 30 μM BHDPC 2 h, LPS 24 h. As for the experimental part:
as §5, §2, §6

Data set [5] concerns cerebellar granule neurons (CGNs). The experiment in a line: MPP+-induced neurotoxicity in primary cerebellar granule neurons (MTT assay). Type of data set: cell-based, mice. The settings on record: 10 and 30 μM, 2 h pre-treatment, 40 μM MPP+ 24 h. As for the experimental part: Cerebellar tissue slice were treated with 30 μM BHDPC with or without MPP^+ for 72 h and then were stained with PI.
as §2
Rat CGNs were prepared from 8-day-old Sprague-Dawley rats (The Animal Care Facility, The Hong Kong Polytechnic University) as described in our previous publication. Briefly, neurons were seeded at a density of 2.7×10^5 cells/ml in basal modified Eagle's medium (Invitrogen) containing 10% fetal bovine serum, 25 mM KCl, 2 mM glutamine, and penicillin (100 units/ml)/streptomycin (100 μg/ml). […]
To further confirm the effect of BHDPC on primary neurons, mice cerebellar granule neurons were treated with BHDPC at the indicated concentrations for 2 hours and then exposed to 40 μM MPP^+. Cell viability was measured by the MTT assay at 24 hours after the MPP^+ challenge.

The next data set concerns primary cortical neurons. Nature of the data set: α-tubulin and MAP2 expression in primary cortical neurons. The settings on record: 10 and 30 μM, 14 days. Type of data set: cell-based, rat. As for the experimental part:
Primary culture of cortical neurons was prepared from embryonic day 18±0.5 Sprague-Dawley rats. One day after seeding, primary cortical neurons were treated with 10 and 30 μM BHDPC for 14 days. Fourteen days following BHDPC treatment, primary cortical neurons cultured on glass coverslips (Thermo Scientific) were fixed with 4% paraformaldehyde for 15 min. Following fixation, neurons were permeabilized with 0.1% Triton X-100 in Tris-buffered saline for 7 min, and blocked with 4% bovine serum albumin and 2% goat serum for 1 h. α-tubulin and MAP2 were incubated at 1:400 dilution for 1 h at room temperature and overnight at 4° C. respectively. Following primary antibody incubation, neurons were incubated with Alexa Flour 488 or 568 secondary antibodies (anti-rabbit or anti-mouse) at 1:400 dilution for 1 h at room temperature. The coverslips were then mounted on microscopic slides (Thermo Scientific) using ProLong® Gold Antifade Mountant (Molecular Probes). Neurons were imaged using the LSM 780 laser scanning microscope (Carl Zeiss). Fluorescence intensity was measured using Image J.

Another data set addresses ROCK1 (Homo sapiens, UniProt Q13464). Nature of the data set: Kinase activity assay ROCK1. The data set is classed as biochemical. An excerpt:
ROCK has two isoforms (ROCK1 and ROCK2) sharing the same downstream proteins. Bioassay and molecular docking are used to compare the characteristics of BHDPC on ROCK. […] Through molecular docking and molecular dynamics simulation, the interaction between the inhibitor and ROCK1 was shown in FIG. 17.

Entries after “also recorded” stand apart in the source; their conditions may differ.

ROCK1, sequence (Q13464 whole entry, species assumed, canonical isoform): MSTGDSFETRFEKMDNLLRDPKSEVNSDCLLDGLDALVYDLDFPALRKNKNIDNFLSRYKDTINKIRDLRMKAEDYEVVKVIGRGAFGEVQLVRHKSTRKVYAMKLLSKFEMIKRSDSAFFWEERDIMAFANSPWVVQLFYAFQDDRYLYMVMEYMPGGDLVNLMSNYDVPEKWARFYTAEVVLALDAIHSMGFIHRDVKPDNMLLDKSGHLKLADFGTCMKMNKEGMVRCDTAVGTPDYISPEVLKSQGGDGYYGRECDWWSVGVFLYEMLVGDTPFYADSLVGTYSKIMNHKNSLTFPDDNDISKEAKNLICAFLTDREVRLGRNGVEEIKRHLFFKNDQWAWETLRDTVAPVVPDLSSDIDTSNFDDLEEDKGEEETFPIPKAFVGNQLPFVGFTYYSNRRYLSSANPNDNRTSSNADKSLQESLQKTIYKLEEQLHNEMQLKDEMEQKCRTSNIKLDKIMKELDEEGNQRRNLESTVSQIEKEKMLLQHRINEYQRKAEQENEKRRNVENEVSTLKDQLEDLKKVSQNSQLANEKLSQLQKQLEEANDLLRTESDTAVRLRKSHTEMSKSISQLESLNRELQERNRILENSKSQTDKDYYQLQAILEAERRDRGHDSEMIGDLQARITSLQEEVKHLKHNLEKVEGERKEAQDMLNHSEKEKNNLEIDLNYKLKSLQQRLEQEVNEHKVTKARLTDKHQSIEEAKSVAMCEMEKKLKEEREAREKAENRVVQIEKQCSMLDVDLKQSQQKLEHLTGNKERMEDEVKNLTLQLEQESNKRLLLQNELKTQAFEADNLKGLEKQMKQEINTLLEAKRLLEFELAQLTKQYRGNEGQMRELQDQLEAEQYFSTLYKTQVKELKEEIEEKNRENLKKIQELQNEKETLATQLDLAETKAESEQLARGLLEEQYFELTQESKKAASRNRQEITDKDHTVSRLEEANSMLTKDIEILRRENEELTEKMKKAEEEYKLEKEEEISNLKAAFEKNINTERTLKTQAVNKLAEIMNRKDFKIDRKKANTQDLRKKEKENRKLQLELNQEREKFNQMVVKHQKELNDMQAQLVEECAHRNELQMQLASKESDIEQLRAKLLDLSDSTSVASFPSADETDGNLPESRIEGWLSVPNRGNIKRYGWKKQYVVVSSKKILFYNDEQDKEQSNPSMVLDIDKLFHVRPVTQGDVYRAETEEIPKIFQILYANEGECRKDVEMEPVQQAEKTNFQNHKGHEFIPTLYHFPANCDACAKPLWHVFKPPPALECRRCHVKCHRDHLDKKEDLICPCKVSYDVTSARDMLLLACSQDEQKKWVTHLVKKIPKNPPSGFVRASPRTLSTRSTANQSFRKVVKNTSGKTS

For the molecule `COc1cc(C2C(C(=O)OCc3ccccc3)=C(C)Nc3nnnn32)ccc1O` (stereo not drawn) [BHDPC, benzyl 7-(4-hydroxy-3-methoxyphenyl)-5-methyl-4,7-dihydrotetrazolo[1,5-a]pyrimidine-6-carboxylate], the viability at 48 h, 100 µM in data set [1] came out at 65%. Further, the viability at 1 µM in data set [2] (1 μM) worked out at 100%. Further, the viability at 3 µM in data set [2] (3 μM) was found to be 106%. Moreover, the viability at 10 µM in data set [2] (10 μM) is 127%. Moreover, in data set [2] (30 μM), the viability at 30 µM was 152%. In addition, in data set [3], the “hydrogen peroxide-induced cell death” value is listed as “dramatically attenuated”. Moreover, in data set [4], the LPS-induced cell death entry is reported as “reduced LPS-induced cell death”. For the same molecule, the “MPP+-induced neuronal death (cell viability, MTT)” value in data set [5] is reported as “reduced MPP^+-induced dopaminergic neuronal death; also recorded: prevented MPP^+-induced neuronal death”. Further, in the data set on primary cortical neurons, the “level of microtubule-associated protein (MAP2)” value was “increase levels” and the “level of α-tubulin” value is reported as “increase levels”. For the same molecule, on ROCK1 (from IC50 values), the “affinity ROCK1 versus ROCK2” value was “better affinity for ROCK1 than ROCK2”. The same molecule yielded an IC50 on ROCK1 (kinase activity assay) of 13.7 µM.
